Results: patent publication US10745389B2, “HDAC6 selective inhibitors, preparation method therefor, and application thereof” (CSTONE PHARMACEUTICALS (SUZHOU) CO., LTD., priority 2017, dated 2020)

System: human myeloma MM.1S cells subcutaneous xenograft tumor
Experiment: In vivo pharmacodynamic study with Ixazomib, MM.1S subcutaneous xenograft in CB-17 SCID model
Parameters: species or system CB-17 SCID mouse
Conditions: Ixazomib 4 mg/kg administered alone, 21st day
Experimental: The purpose of this experiment was to investigate the in vivo therapeutic effect of the compounds of the present invention in combination with proteasome inhibitor Ixazomib on human myeloma MM.1S cell subcutaneous xenografts in the CB-17 SCID model.
Human myeloma MM. S cells were cultured in vitro in a single layer, culture environment was RPMI-1640 medium (supplier: Gibco; Cat. No. 22400-089) supplemented with 10% fetal bovine serum, 37° C. 5% CO2 incubator. Then passage was done by routinely digested with trypsin-EDTA twice a week. When the cell saturation rate reached 80%-90%, the cells were collected, counted, and inoculated.
0.2 mL of 5×10^6 MM.1S cells were subcutaneously inoculated into the right back of each mouse (Beijing Weitong Lihua Biotechnology Co., Ltd., female, 6-8 weeks old) (PBS: Matrigel=1:1)). Administration by groups was initiated when the average tumor volume reached 100-150 mm^3.
Animals were monitored daily for health and mortality, routine tests includes observations of tumor growth and drug treatment effects on animal performance, such as behavioral activities, food intake (visual inspection only), weight change (measured every other day), appearance signs or other abnormal conditions. The number of animal deaths and side effects in the group were recorded based on the number of animals in each group.
The experimental index is to investigate whether tumor growth is inhibited, delayed or cured. Tumor diameters were measured with vernier calipers three times a week. The tumor volume is calculated by: V=0.5a×b^2, where a and b represent the long and short diameters of the tumor, respectively.
The antitumor effect of the compound was evaluated by TGI (%) or relative tumor growth rate T/C (%). TGI (%), reflecting the tumor growth inhibition rate. […]

CC(C)C[C@H](NC(=O)CNC(=O)c1cc(Cl)ccc1Cl)B(O)O [Ixazomib]
tumor volume: 916 mm^3
T/C (vs solvent control): 34.97%
TGI (vs solvent control): 68.65%
